Measured values as given in a compilation of properties of binary mixtures (doi:10.1007/s10953-009-9410-7).

Test: xn = mol fraction of the nth substance listed
Conditions: 101 kPa

CCCC[n+]1ccn(C)c1.N#C[S-] + CCCCCO
viscosity [mPa·s]
Conditions | 298.15 K | 308.15 K | 318.15 K | 328.15 K | 338.15 K | 348.15 K
x2 = 0 | 51.7 | 34.9 | 24.2 | 16.7 | – | 9.98
x2 = 0.0193 | 46.9 | – | 21.9 | 16.2 | 12.5 | 9.88
x2 = 0.1443 | 34.2 | – | 17 | 12.8 | 9.98 | 7.97
x2 = 0.2751 | 26 | 18.3 | 13.5 | 10.4 | 8.2 | –
x2 = 0.3843 | 20 | 14.4 | 10.9 | 8.49 | – | –
x2 = 0.487 | 15.5 | 11.4 | 8.74 | 6.84 | 5.48 | 4.47
x2 = 0.5557 | 12.7 | 9.5 | – | 5.74 | 4.61 | 3.78
x2 = 0.616 | 10.8 | 8.15 | 6.63 | 5.05 | – | 3.42
x2 = 0.7302 | 7.74 | 5.89 | 4.62 | – | 3.04 | 2.54
x2 = 0.7914 | 6.49 | 4.97 | 3.92 | 3.16 | 2.6 | –
x2 = 0.856 | 5.38 | 4.14 | 3.27 | 2.63 | 2.16 | 1.8
x2 = 0.9135 | 4.56 | – | 2.77 | 2.22 | 1.81 | –

CCCCO + CCCC[n+]1ccn(C)c1.N#C[S-]
x1 = 1
Conditions | viscosity [mPa·s]
298.15 K | 2.52
308.15 K | 1.97
318.15 K | 1.56
338.15 K | 1.02

CCCCCO + CCCC[n+]1ccn(C)c1.N#C[S-]
x1 = 1
Conditions | viscosity [mPa·s]
308.15 K | 2.57
318.15 K | 2
328.15 K | 1.58
338.15 K | 1.27
348.15 K | 1.03

CCCCCCO + CCCC[n+]1ccn(C)c1.N#C[S-]
x1 = 1
Conditions | viscosity [mPa·s]
298.15 K | 4.48
318.15 K | 2.55
328.15 K | 1.98
348.15 K | 1.28

CCCC[n+]1ccn(C)c1.N#C[S-] + CCCCO
viscosity [mPa·s]
Conditions | 298.15 K | 308.15 K | 318.15 K | 328.15 K | 338.15 K | 348.15 K
x2 = 0 | 51.7 | 34.9 | 24.2 | 16.7 | 12.7 | 9.98
x2 = 0.0911 | 39.2 | 26.5 | – | 14.2 | 11 | 8.82
x2 = 0.3317 | 21.2 | 15.2 | 11.5 | 8.92 | 7.12 | –
x2 = 0.4552 | 15.3 | 11.3 | 8.7 | – | 5.51 | 4.51
x2 = 0.5596 | – | 8.44 | – | 5.16 | – | 3.5
x2 = 0.6222 | – | 7.04 | – | 4.39 | – | 3.02
x2 = 0.6834 | 7.53 | – | – | – | 3.08 | 2.59
x2 = 0.79 | – | 4.12 | 3.3 | 2.69 | 2.24 | 1.89
x2 = 0.8487 | 4.37 | 3.43 | 2.75 | 2.25 | 1.87 | 1.58
x2 = 0.8975 | 3.74 | 2.94 | 2.36 | 1.92 | 1.6 | –
x2 = 0.9738 | – | 2.27 | – | 1.46 | 1.2 | –

CCCC[n+]1ccn(C)c1.N#C[S-] + CCCCCCO
viscosity [mPa·s]
Conditions | 298.15 K | 308.15 K | 318.15 K | 328.15 K | 338.15 K | 348.15 K
x2 = 0 | 51.7 | 34.9 | 24.2 | 16.7 | 12.7 | 9.98
x2 = 0.0424 | 44.4 | 29.7 | 21 | 15.6 | – | –
x2 = 0.1505 | – | – | 17.7 | 13.3 | 10.3 | 8.26
x2 = 0.3093 | 26.1 | 18.3 | 13.5 | 10.3 | – | 6.54
x2 = 0.453 | 18.2 | – | 9.87 | 7.65 | – | 4.92
x2 = 0.5773 | 13.8 | 10.2 | 7.71 | 6 | – | 3.88
x2 = 0.6307 | 12.1 | 9.01 | – | 5.39 | 4.3 | 3.51
x2 = 0.6962 | 10.3 | 7.67 | 5.87 | – | 3.67 | 3.04
x2 = 0.7583 | 8.77 | 6.54 | 4.98 | – | 3.18 | 2.65
x2 = 0.8512 | 6.83 | 5.15 | 3.99 | – | 2.57 | 2.1
x2 = 0.9102 | 5.87 | – | – | 2.69 | 2.17 | 1.77
